{"source": "patent US12643906B2", "about": "“Fused aza-heterocyclic amide compound and use thereof” (CSPC ZHONGQI PHARMACEUTICAL TECHNOLOGY (SHIJIAZHUANG) CO., …, priority 2020, dated 2026)", "key": {"[1]": {"test_system": "TRK, p-TRK, p-PLCγ1, p-AKT in Ba/F3 LMNA-NTRK1-G595R tumor tissues", "experiment": "In vivo mechanism study, western blot of tumor tissues", "design": "species or system NuNu mice", "details": "100 mg/kg gavage, tumor taken 0.25-24 h", "procedure": "A total of 3 mice in the control group were selected, and tumor tissues were taken and cryopreserved 4 h after the administration of the vehicle. The compound No. 4 of the present disclosure was administered to other groups at 100 mg/kg, and tumor tissues was taken at 0.25 h, 1 h, 4 h, 8 h, 12 h and 24 h for cryopreservation.\nA certain mass of tumor tissue was taken and added into a corresponding volume of protein lysate (RIPA lysate (Thermo Fisher, Cat. No. 89900): protease inhibitor (cOmplete, Mini, EDTA-free, EASYpack; Roche, Cat. No. 04693159001): phosphatase inhibitor (PhosStop, EASY pack; Roche, Cat. No. 04906837001)=8:1:1), homogenized and lysed in ice bath for 30 min. The mixture was subjected to high-speed centrifugation at low temperature, and then the supernatant was taken for BCA protein quantification (procedure according to the BCA protein quantification kit (Qiagen, Cat. No. PA115-01)). Finally, after the protein concentration was adjusted to be uniform by lysate, loading buffer was added, and the mixture was boiled at 100° C. for 10 min.\n4-20% of 10-well prefabricated gel was adopted; the sample loading amount was 100 μg; 140 V electrophoresis was performed for 1-1.5 h; the 300 mA wet-transfer was performed for 1.5-2 h; the membrane was blocked with 5% BSA for 2-3 h; incubating with primary antibody overnight at 4° C. […]"}, "TRKC(G623R)": {"molecular_target": "T1, TRKC(G623R) (Homo sapiens, UniProt Q16288, G623R)", "T1 construct": "purchased Bioduro", "T1 sequence (Q16288 32-839 G623R)": "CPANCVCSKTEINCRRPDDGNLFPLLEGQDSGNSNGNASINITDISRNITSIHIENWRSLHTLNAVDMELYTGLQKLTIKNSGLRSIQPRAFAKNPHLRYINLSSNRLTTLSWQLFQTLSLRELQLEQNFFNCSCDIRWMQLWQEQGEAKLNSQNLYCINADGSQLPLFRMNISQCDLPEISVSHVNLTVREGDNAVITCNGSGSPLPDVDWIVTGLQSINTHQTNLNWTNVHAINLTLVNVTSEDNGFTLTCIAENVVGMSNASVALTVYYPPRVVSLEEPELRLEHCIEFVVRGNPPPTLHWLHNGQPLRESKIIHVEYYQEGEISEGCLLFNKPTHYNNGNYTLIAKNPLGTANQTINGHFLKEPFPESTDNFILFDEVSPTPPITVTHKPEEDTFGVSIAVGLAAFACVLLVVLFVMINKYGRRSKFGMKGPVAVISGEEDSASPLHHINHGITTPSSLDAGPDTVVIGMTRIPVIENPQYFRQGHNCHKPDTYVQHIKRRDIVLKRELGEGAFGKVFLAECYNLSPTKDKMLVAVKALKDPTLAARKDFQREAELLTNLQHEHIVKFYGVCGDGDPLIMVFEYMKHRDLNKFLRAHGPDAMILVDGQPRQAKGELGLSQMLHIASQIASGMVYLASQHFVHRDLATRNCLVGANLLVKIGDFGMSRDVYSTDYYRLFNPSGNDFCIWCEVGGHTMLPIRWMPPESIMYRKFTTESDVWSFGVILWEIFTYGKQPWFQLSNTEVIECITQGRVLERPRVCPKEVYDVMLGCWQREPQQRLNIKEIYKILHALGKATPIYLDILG", "experiment": "HTRF kinase inhibition assay, TRKC(G623R)", "format": "biochemical", "procedure": "(§1) The compound to be tested with a certain concentration gradient and an enzyme solution were successively added into a plate (kinase buffer (1× kinase buffer (Cisbio, Cat #62EZBFDD), pH 7.5; 5 mM MgCl2, 1 mM DTT) was added into negative control wells), and the compound plate was centrifuged at 1000 rpm for 30 seconds. The plate was sealed and incubated in a Constant Temperature Incubator at 25° C. for 30 min. A substrate solution containing TK-Sub-biotin (Cisbio, Cat #61TKOBL) and ATP (Sigma, Cat #R0441) was prepared, the substrate solution was added into a 384-well plate, and the plate was centrifuged at 1000 rpm for 30 seconds. The plate was sealed and incubated in a Constant Temperature Incubator at 25° C. for 60 min.\n(§2) TK antibody and XL665 were diluted, mixed and added into the assay plate, and the plate was centrifuged at 1000 rpm for 30 seconds. The plate was sealed and incubated in a Constant Temperature incubator Incubator at 25° C. for 60 min. The assay plate was placed on an Envision reader for reading. (HTRF 665/615 ratio: signal value at 665 nm/signal value at 615 nm) Inhibition=(rationegative control well−ratiocompound well)/(rationegative control well−ratioenzyme-free control well)×100% 1.3 Data Analysis and Curve Fitting\n(§3) Data were fitted in XLFit excel add-in version 5.4.0.8 to obtain IC50 values."}, "TRKA": {"molecular_target": "T2, TRKA (Homo sapiens, UniProt P04629)", "T2 construct": "purchased Bioduro", "T2 sequence (P04629 33-796)": "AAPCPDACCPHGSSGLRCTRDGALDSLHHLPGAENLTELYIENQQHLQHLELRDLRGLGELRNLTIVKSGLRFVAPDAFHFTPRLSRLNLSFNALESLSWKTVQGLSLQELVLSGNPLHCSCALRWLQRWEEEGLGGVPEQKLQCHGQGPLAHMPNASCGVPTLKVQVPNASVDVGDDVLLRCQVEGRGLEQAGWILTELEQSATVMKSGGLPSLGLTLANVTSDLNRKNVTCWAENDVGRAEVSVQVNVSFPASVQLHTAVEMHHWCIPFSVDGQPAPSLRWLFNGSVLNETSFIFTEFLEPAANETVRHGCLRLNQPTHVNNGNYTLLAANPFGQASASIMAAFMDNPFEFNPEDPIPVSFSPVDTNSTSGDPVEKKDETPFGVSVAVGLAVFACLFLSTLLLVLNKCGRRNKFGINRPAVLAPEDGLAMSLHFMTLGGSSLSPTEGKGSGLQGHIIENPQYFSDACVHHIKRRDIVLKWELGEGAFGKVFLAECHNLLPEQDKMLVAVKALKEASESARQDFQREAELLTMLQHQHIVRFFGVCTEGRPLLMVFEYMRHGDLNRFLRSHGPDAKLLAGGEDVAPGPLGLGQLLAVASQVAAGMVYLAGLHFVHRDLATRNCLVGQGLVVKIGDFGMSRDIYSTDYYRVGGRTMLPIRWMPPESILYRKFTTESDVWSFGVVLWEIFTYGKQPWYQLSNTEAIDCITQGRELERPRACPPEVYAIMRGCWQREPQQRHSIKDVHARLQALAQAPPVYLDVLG", "experiment": "HTRF kinase inhibition assay, TRKA", "format": "biochemical", "procedure": "as §1, §2, §3"}, "TRKC(G696A)": {"molecular_target": "T3, TRKC(G696A) (Homo sapiens, UniProt Q16288, G696A)", "T3 construct": "purchased Bioduro", "T3 sequence (Q16288 32-839 G696A)": "as the sequence (Q16288 32-839 G623R) above, with R592G, G665A counted along it", "experiment": "HTRF kinase inhibition assay, TRKC(G696A)", "format": "biochemical", "procedure": "as §1\nTK antibody and XL665 were diluted, mixed and added into the assay plate, and the plate was centrifuged at 1000 rpm for 30 seconds. The plate was sealed and incubated in a Constant Temperature incubator Incubator at 25° C. for 60 min. The assay plate was placed on an Envision reader for reading.\nas §3"}, "[2]": {"test_system": "Ba/F3 LMNA-NTRK1-G595R model", "details": "gavage", "procedure": "(§4) The cells in the logarithmic growth phase were collected and re-suspending in serum-free culture medium to make the cell concentration at […] cells/mL. The cell suspension was added with equal volume of Matrigel to make the final cell concentration at 3×10^7-5×10^7 cells/mL. The animal model was established by subcutaneously inoculating 0.1 mL of tumor cell suspension in the axilla of the forelimb of NuNu mice (female, 4-6 weeks, Beijing Vital River Laboratory Animal Technology Co., Ltd.) in an amount of 3×10^6-5×10^6 cells/mouse.\n(§5) The maximum and the minimum tumor diameters of the xenografts in nude mice were measured using a vernier caliper, and the tumor volume (TV) was calculated according to the formula: V=½×a×b^2, where a and b represent the maximum and minimum diameters of the tumor mass, respectively. Nude mice with appropriate tumor volume were selected and the mice were evenly divided into 7 groups of 6 mice (100-200 mm^3) by tumor volume using a random number method.\n(§6) Tumor diameters were measured twice weekly and tumor volume was calculated. […] (where Ti represents the mean tumor volume of a certain administration group on a certain day; TO represents the mean tumor volume of the administration group at the start of administration, Vi represents the mean tumor volume of the vehicle control group on a certain day (same day as Ti) and V0 represents the mean tumor volume of the vehicle control group at the start of administration); • Tumor inhibition rate: at the end of the test, the animals were executed by removing the cervical vertebrae."}, "[3]": {"test_system": "Ba/F3 LMNA-NTRK1-G667C model", "details": "100 mg/kg, gavage", "procedure": "as §4, §5, §6"}}, "note": "Like-named read-outs stand apart in the source and are kept apart here."}
{"molecule": "O=C(Nc1ccc(N2CCN(C(=O)CO)CC2)cc1)c1cnn2ccc(N3C[C@@H](F)C[C@@H]3c3cc(F)ccc3F)nc12", "note": "[Compound 4, 5-((2R,4S)-2-(2,5-difluorophenyl)-4-fluoropyrrolidin-1-yl)-N-(4-(4-(2-hydroxyacetyl)piperazin-1-yl)phenyl)pyrazolo[1,5-a]pyrimidine-3-carboxamide]", "values": [{"measurement": "phosphorylation of p-PLCγ1/PLCγ1 and p-AKT/AKT in tumor tissues", "setting": "[1]", "value": "effectively inhibit"}, {"measurement": "protein level of TRK and p-TRK in tumor tissues", "setting": "[1]", "value": "significantly reduce"}, {"measurement": "IC50", "setting": "TRKC(G623R)", "value": 0.205, "unit": "nM"}, {"measurement": "IC50", "setting": "TRKA", "value": 0.236, "unit": "nM"}, {"measurement": "IC50", "setting": "TRKC(G696A)", "value": 0.383, "unit": "nM"}, {"measurement": "Number of animals (Survival/total)", "setting": "[2]; 50 mg/kg", "value": "(6/6)"}, {"measurement": "Rate of weight gain (%)", "setting": "[2]; 50 mg/kg", "value": 10.66, "unit": "%"}, {"measurement": "TGI (%)", "setting": "[2]; 50 mg/kg", "value": 136.9, "unit": "%"}, {"measurement": "Tumor volume (mm^3)", "setting": "[2]; 50 mg/kg", "value": "15.7 ± 12.6", "unit": "mm^3"}, {"measurement": "Tumor weight", "setting": "[2]; 50 mg/kg", "value": "0.02 ± 0.01", "unit": "g"}, {"measurement": "Tumor weight inhibition rate (%)", "setting": "[2]; 50 mg/kg", "value": 96.16, "unit": "%"}, {"measurement": "Number of animals (Survival/total)", "setting": "[2]; 100 mg/kg", "value": "(6/6)"}, {"measurement": "Rate of weight gain (%)", "setting": "[2]; 100 mg/kg", "value": 8.32, "unit": "%"}, {"measurement": "TGI (%)", "setting": "[2]; 100 mg/kg", "value": 138.0, "unit": "%"}, {"measurement": "Tumor volume (mm^3)", "setting": "[2]; 100 mg/kg", "value": "11.3 ± 9.7", "unit": "mm^3"}, {"measurement": "Tumor weight", "setting": "[2]; 100 mg/kg", "value": "0.02 ± 0.01", "unit": "g"}, {"measurement": "Tumor weight inhibition rate (%)", "setting": "[2]; 100 mg/kg", "value": 96.83, "unit": "%"}, {"measurement": "Number of animals (Survival/total)", "setting": "[3]", "value": "(6/6)"}, {"measurement": "Rate of weight gain (%)", "setting": "[3]", "value": 8.16, "unit": "%"}, {"measurement": "TGI (%)", "setting": "[3]", "value": 84.0, "unit": "%"}, {"measurement": "Tumor volume (mm^3)", "setting": "[3]", "value": "197.5 ± 85.4", "unit": "mm^3"}, {"measurement": "Tumor weight", "setting": "[3]", "value": "0.21 ± 0.08", "unit": "g"}, {"measurement": "Tumor weight inhibition rate (%)", "setting": "[3]", "value": 61.17, "unit": "%"}]}
